Key:
[1] = tested on: Rattus norvegicus; experiment: Serum creatinine concentration measured after intraperitoneal administration of 10 mg/kg of compound to rats(vehicle 4.26+/-0.39); format: functional
[2] = tested on: Rattus norvegicus; experiment: Effect on urinary excretion potassium and sodium after oral administration of 1.6 mg/kg to rats(potassium and sodium excretion in control rat is 0.158+/-0.034); format: functional, Urine
[3] = tested on: Rattus norvegicus; experiment: Ratio of urinary excretion value (urinary volume) in treated rats to that in control rats, at a peroral dose of 25 mg/Kg; format: functional, Urine
[4] = tested on: Rattus norvegicus; experiment: Ratio of sodium ion/potassium ion concentration in treated rats to that in control rats, at a peroral dose of 3.1 mg/Kg; format: functional
[5] = tested on: Rattus norvegicus; experiment: Percent inhibition of serum creatinine by the compound given as ratio of Cr value in treated to vehicle treated ones after intraperitoneal administration of 10 mg/kg of compound to rats(vehicle 4.26+/-0.39); format: functional; conditions: ip
[6] = tested on: Rattus norvegicus; experiment: Effect on urinary excretion potassium and sodium after oral administration of 25 mg/kg to rats(potassium and sodium excretion in control rat is 0.079+/-0.007); format: functional, Urine
[7] = tested on: Rattus norvegicus; experiment: Percent inhibition of Urea nitrogen by the compound given as ratio of UN value in treated to vehicle treated ones after intraperitoneal administration of 1 mg/kg of compound to rats(vehicle 154.5+/-7); format: functional; conditions: ip
[8] = tested on: Rattus norvegicus; experiment: Ratio of urinary excretion value (urinary volume) in treated rats to that in control rats, at a peroral dose of 1.6 mg/Kg; format: functional, Urine
[9] = tested on: Rattus norvegicus; experiment: Ratio of urinary excretion value (Na+ concentration) in treated rats to that in control rats, at a peroral dose of 25 mg/Kg; format: functional, Urine
[10] = tested on: Rattus norvegicus; experiment: Ratio of sodium ion/potassium ion concentration in treated rats to that in control rats, at a peroral dose of 1.6 mg/Kg; format: functional
[11] = tested on: Rattus norvegicus; experiment: Percent inhibition of serum creatinine by the compound given as ratio of Cr value in treated to vehicle treated ones after intraperitoneal administration of 1 mg/kg of compound to rats(vehicle 4.91+/-0.10); format: functional; conditions: ip
[12] = tested on: Rattus norvegicus; experiment: Oral diuretic activity was measured after oral administration of 1.6 mg/kg to rats(control volume is 1.12+/-0.33); format: functional, Urine
[13] = tested on: Rattus norvegicus; experiment: Oral diuretic activity was measured after oral administration of 3.1 mg/kg to rats(control volume is 1.18+/-0.11); format: functional, Urine
[14] = tested on: Rattus norvegicus; experiment: Serum creatinine concentration measured after intraperitoneal administration of 1 mg/kg of compound to rats(vehicle 4.91+/-0.10); format: functional
[15] = tested on: Rattus norvegicus; experiment: Urea nitrogen concentration measured after intraperitoneal administration of 1 mg/kg of compound to rats(vehicle 154.5+/-7); format: functional
[16] = tested on: Rattus norvegicus; experiment: Effect on urinary excretion potassium and sodium after oral administration of 3.1 mg/kg to rats(potassium and sodium excretion in control rat is 0.227+/-0.027); format: functional, Urine
[17] = tested on: Rattus norvegicus; experiment: Urea nitrogen concentration measured after intraperitoneal administration of 10 mg/kg of compound to rats(vehicle 146.7+/-10.1); format: functional
[18] = molecular target: T1, Adenosine receptor A1 (Cavia porcellus, UniProt P47745)
T1 sequence (P47745 whole entry): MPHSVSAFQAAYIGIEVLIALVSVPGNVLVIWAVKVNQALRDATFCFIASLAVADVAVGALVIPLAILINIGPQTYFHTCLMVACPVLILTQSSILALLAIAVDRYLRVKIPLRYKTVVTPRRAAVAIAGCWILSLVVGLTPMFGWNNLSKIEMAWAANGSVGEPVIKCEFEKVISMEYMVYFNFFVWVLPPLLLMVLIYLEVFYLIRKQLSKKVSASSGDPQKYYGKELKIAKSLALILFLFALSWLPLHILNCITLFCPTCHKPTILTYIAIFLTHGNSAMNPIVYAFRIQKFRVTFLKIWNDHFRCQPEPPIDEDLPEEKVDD
Description: Binding affinity against adenosine A1 receptor in guinea pig forebrain membranes using N6-[3H]cyclohexyladenosine as radioligand

[19] = tested on: Rattus norvegicus; experiment: Ratio of urinary excretion value (Na+ concentration) in treated rats to that in control rats, at a peroral dose of 1.6 mg/Kg; format: functional, Urine
[20] = tested on: Rattus norvegicus; experiment: Ratio of urinary excretion value (Na+ concentration) in treated rats to that in control rats, at a peroral dose of 3.1 mg/Kg; format: functional, Urine
[21] = tested on: Rattus norvegicus; experiment: Ratio of urinary excretion value (urinary volume) in treated rats to that in control rats, at a peroral dose of 3.1 mg/Kg; format: functional, Urine
[22] = tested on: Rattus norvegicus; experiment: Percent inhibition of Urea nitrogen by the compound given as ratio of UN value in treated to vehicle treated ones after intraperitoneal administration of 10 mg/kg of compound to rats(vehicle 146.7+/-10.1); format: functional; conditions: ip
[23] = tested on: Rattus norvegicus; experiment: Oral diuretic activity was measured after oral administration of 25 mg/kg to rats(control volume is 0.69+/-0.03); format: functional, Urine
[24] = tested on: Rattus norvegicus; experiment: Oral diuretic activity was measured after oral administration of 25 mg/kg to rats(control volume is 1.04+/-0.11); format: functional, Urine
[25] = tested on: Rattus norvegicus; experiment: Ratio of sodium ion/potassium ion concentration in treated rats to that in control rats, at a peroral dose of 25 mg/Kg; format: functional
[26] = tested on: Rattus norvegicus; experiment: Percent inhibition of serum creatinine by the compound given as ratio of Cr value in treated to vehicle treated ones after intraperitoneal administration of 10 mg/kg of compound to rats(vehicle 2.74+/-0.27); format: functional; conditions: ip
[27] = tested on: Rattus norvegicus; experiment: Effect on urinary excretion potassium and sodium after oral administration of 25 mg/kg to rats(potassium and sodium excretion in control rat is 0.095+/-0.009); format: functional, Urine
[28] = tested on: Rattus norvegicus; experiment: Serum creatinine concentration measured after intraperitoneal administration of 10 mg/kg of compound to rats(vehicle 2.74+/-0.27); format: functional
[29] = tested on: Rattus norvegicus; experiment: Urea nitrogen concentration measured after intraperitoneal administration of 10 mg/kg of compound to rats(vehicle 97.7+/-8.7); format: functional
[30] = tested on: Rattus norvegicus; experiment: Percent inhibition of Urea nitrogen by the compound given as ratio of UN value in treated to vehicle treated ones after intraperitoneal administration of 10 mg/kg of compound to rats(vehicle 97.7+/-8.7); format: functional; conditions: ip

Compound: CCCn1c(=O)c2nc(C34CC5CC(CC(C5)C3)C4)[nH]c2n(CCC)c1=O
- Cr [1]: 1.91 mg/dL
- Na [2]: 0.227 m equiv 6hr-1 100g-1
- T/C [3]: 2.29
- Na+/K+ [4]: 1.23
- inhibition in vivo at 10 mg/kg [5]: 55%
- Na [6]: 0.226 m equiv 6hr-1 100g-1
- inhibition in vivo at 1 mg/kg [7]: 25%
- T/C [8]: 1.24
- T/C [9]: 2.86
- Na+/K+ [10]: 1.22
- inhibition in vivo at 1 mg/kg [11]: 30%
- Urine volume [12]: 1.39 ml 6hr-1 100g-1
- Urine volume [13]: 1.67 ml 6hr-1 100g-1
- Cr [14]: 3.45 mg/dL
- UN [15]: 118.8 mg/dL
- Na [16]: 0.299 m equiv 6hr-1 100g-1
- UN [17]: 77.5 mg/dL
- Ki [18]: 13 nM
- T/C [19]: 1.44
- T/C [20]: 1.32
- T/C [21]: 1.42
- inhibition in vivo at 10 mg/kg [22]: 47%
- Urine volume [23]: 1.58 ml 6hr-1 100g-1

Compound: CCCn1c(=O)c2[nH]c(-c3ccc(OCC(=O)NCCN)cc3)nc2n(CCC)c1=O [XANTHINE AMINE CONGENER]
- T/C [3]: 1.05
- T/C [9]: 1.19
- Urine volume [24]: 1.05 ml 6hr-1 100g-1
- Na+/K+ [25]: 1.24
- inhibition in vivo at 10 mg/kg [26]: 24%
- Na [27]: 0.113 m equiv 6hr-1 100g-1
- Cr [28]: 2.07 mg/dL
- UN [29]: 70.1 mg/dL
- inhibition in vivo at 10 mg/kg [30]: 28%
